Reference: patent US12006332B2, “Aminopyrimidine derivatives as phosphatidylinositol phosphate kinase inhibitors” (HiberCell, Inc., priority 2019, dated 2024)

Tests used:
[1] = target: T1, PIP4K2A (Homo sapiens, UniProt P48426); assay: Kinase Assay-PIP4K2 A (ADP-Glo); assay type: biochemical
T1 construct: made in house; host or cells: E. coli
T1 sequence (P48426 1-406): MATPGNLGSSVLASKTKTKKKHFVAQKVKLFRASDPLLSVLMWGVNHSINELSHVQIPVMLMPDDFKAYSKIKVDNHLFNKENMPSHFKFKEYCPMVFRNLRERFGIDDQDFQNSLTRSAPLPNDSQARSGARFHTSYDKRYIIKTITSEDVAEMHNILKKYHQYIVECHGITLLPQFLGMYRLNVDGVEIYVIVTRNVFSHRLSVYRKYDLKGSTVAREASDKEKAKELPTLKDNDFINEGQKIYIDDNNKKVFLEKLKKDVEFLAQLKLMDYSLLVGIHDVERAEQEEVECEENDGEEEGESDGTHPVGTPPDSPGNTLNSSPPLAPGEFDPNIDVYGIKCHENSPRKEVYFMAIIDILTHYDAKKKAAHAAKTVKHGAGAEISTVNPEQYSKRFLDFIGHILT
Protocol: Dilution series of the compounds were prepared in DMSO at 100 times the final assay concentration (n1=n0/3 in 10 points). The compounds were further diluted to three times the assay concentration in assay buffer (20 mM MOPS pH 7.2, 25 mM magnesium chloride, 0.005% Tween 20). 6 μL of the diluted compounds were added to a 384 well assay plate followed by 9 μL of a mix consisting of 4 nM PIP4K2A (full length protein, SignalChem) and 100 μM PI(5)P diC8 (Tebu-Bio). Enzyme and compounds were pre-incubated at room temperature for 15 minutes.
Then 3 μL of a solution containing 60 μM ATP (Promega) in assay buffer was added to the wells containing compound and enzyme and mixing was performed by pipetting several times. The reaction was incubated at room temperature for 1 h. Then 18 μL of ADP-Glo™ Reagent (Promega) was added to stop the kinase reaction and deplete the unconsumed ATP, mixing was performed by pipetting several times. The plate was incubated at room temperature for 40 minutes before addition of 36 μL of Kinase Detection Reagent (Promega) to convert ADP to ATP and introduce luciferase and luciferin to detect ATP. The reaction was incubated at room temperature for 40 minutes before the luminescence was measured in a in a Victor 3V 1420 multilabel counter (Perkin Elmer).
Percent inhibition of the compounds as compared to dimethyl sulfoxide treated control samples was calculated. Compound concentration versus percent inhibition were fitted to generate IC50 values. […]

[2] = test system: MOLM-16; assay: MOLM-16 EC50 assay; assay type: cell-based; conditions: MOLM16
[3] = target: T2, PIP4K2 B (Homo sapiens, UniProt P78356); assay: Kinase Assay-PIP4K2 B (Transcreener FI); assay type: biochemical
T2 construct: made in house; host or cells: E. coli
T2 sequence (P78356 1-416): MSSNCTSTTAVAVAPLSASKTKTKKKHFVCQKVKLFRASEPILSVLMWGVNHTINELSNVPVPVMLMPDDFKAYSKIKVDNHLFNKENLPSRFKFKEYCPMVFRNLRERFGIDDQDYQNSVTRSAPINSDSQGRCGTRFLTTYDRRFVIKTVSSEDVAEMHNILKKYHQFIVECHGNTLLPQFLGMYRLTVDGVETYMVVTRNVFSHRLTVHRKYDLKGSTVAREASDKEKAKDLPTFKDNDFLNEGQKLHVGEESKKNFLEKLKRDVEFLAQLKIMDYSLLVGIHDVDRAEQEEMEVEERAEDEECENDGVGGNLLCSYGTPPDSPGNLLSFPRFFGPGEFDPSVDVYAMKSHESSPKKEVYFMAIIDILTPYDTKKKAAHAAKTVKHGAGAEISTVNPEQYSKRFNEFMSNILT
From the text: GST tagged PIP4KtypeIIA and B enzymes were overexpressed in E. Coli and purified to >80% homogeneity. Phosphatidyl inositol-5-phosphate (PI5P, Cat. #850152, Avanti Polar Lipids Inc.) was used as the lipid substrate and phosphatidyl ethanolamine (DOPE 18:1, Cat. #850725, Avanti Polar Lipids Inc.) was used as the carrier lipid for assays. Ultrapure ATP and GTP was purchased from Bellbrooke Labs. ADP Glo reagents were obtained from Promega. Transcreener FI reagent was obtained from Bellbrooke labs.
• 1. HEPES buffer mix: 200 mM HEPES pH 7.4, 50 mM MgCl2, 0.05% v/v triton X 100 • 2. HNE buffer: 20 mM HEPES, pH 7.4, 100 mM NaCl, 0.5 mM EGTA • 3. H:E buffer: 30 mM HEPES, pH 7.4, 1 mM EGTA
GST-tagged PIP4KtypeIIB (3.4 μl, 2.77 mg/mL) was diluted to 5 mL using HNE buffer to yield 5× enzyme stock (25 nM)
Lipid Preparation: In a 10 mL pyrex glass vial, […] were suspended in 2.5 mL of HEPES buffer mix and 2.5 mL of H:E buffer. The contents were mixed and sonicated for 3 min to yield a translucent lipid stock.
Compound Preparation: Compounds were stored as 5 mM stocks in neat DMSO as room temperature in glass vials. 5 mM stocks were diluted to 2 mM and then serially diluted (3×) in neat DMSO in 96 well polypropylene plates. From the serially diluted stocks, 3 μL was delivered into 250 μL of 25% DMSO (in water) to generate 5× compound stocks. Typically, the highest compound conc. was 24 μM.
The assay volume was kept at 25 μL. To each well of the reaction plate, 10 μL of lipid stock (1:1 ratio PI5P:DOPE) was delivered. This was followed by the addition of 5 μL of compound in 25% DMSO. Then, to each well, 5 μL of 25 nM (5×) typeIIB enzyme was delivered. The contents were mixed well and incubated for 1 h at 27° C. After 1 h, reaction was initiated by adding 5 μL of 500 μM GTP and the contents were mixed well with a multi-channel pipetteman. The final concentration of the reagents are as follows: 50 mM HEPES, pH 7.3, 10 mM MgCl2, 20 mM NaCl, 0.01% v/v triton-X100, 5% DMSO, 100 μM GTP, 80 μM (2 μg) PI5P, 2 μg DOPE, and 5 nM PIP4KIIB Typically, the highest conc. of compounds was 4.8 μM and the lowest conc. was 0.
After 2 h, the reaction was quenched by adding 25 μL of transcreener FI reagent. The contents were incubated at rt for 1 h and the Fluorescence (Ex: 584 Em: 623) was read using Molecular Devices Paradigm plate reader. […] The blanks were averaged and subtracted from all other wells. Using a calibration curve, RFU was converted to μM GDP (product). IC50 was calculated by plotting the residual activity (expressed as % No inhibitor control) vs. log [Inh. conc.].

C=C(C)c1cc(Nc2cnc3c(c2)N2C(=O)CC[C@H]2CO3)ncc1-c1ccc(-c2nncn2C)cc1 [Compound 8, (6S)-12-({5-[4-(4-methyl-4H-1,2,4-triazol-3-yl)phenyl]-4-(prop-1-en-2-yl)pyridin-2-yl}amino)-8-oxa-2,10-diazatricyclo[7.4.0.0^2,6]trideca-1(13),9,11-trien-3-one]
IC50 [1]: 1 to 10 nM
EC50 [2]: > 1000 nM
IC50 [3]: 1 to 10 nM

CC1(C#N)CN(c2nc(Nc3cnc4c(c3)N3C(=O)CC[C@H]3CO4)ncc2-c2ccc(N3CCCC3=O)cc2)C1 [Compound 10, 3-methyl-1-(2-{[(6S)-3-oxo-8-oxa-2,10-diazatricyclo[7.4.0.0^2,6]trideca-1(13),9,11-trien-12-yl]amino}-5-[4-(2-oxopyrrolidin-1-yl)phenyl]pyrimidin-4-yl)azetidine-3-carbonitrile]
IC50 [1]: 1 to 10 nM
EC50 [2]: 100 to 1000 nM
IC50 [3]: 1 to 10 nM

CN(c1nc(Nc2cnc3c(c2)OCCO3)ncc1-c1ccc(N2CCCC2=O)cc1)[C@H]1C[C@H](O)C1 [Compound 12, 1-{4-[2-({2H,3H-[1,4]dioxino[2,3-b]pyridin-7-yl}amino)-4-{methyl[(1r,3r)-3-hydroxycyclobutyl]amino}pyrimidin-5-yl]phenyl}pyrrolidin-2-one]
IC50 [1]: 1 to 10 nM
EC50 [2]: 100 to 1000 nM
IC50 [3]: 1 to 10 nM

Cc1cnnn1-c1ccc(-c2cnc(Nc3cnc4c(c3)N(C(=O)OCCN(C)C)CCO4)nc2)cc1 [Compound 13, 2-(dimethylamino)ethyl 7-({5-[4-(5-methyl-1H-1,2,3-triazol-1-yl)phenyl]pyrimidin-2-yl}amino)-1H,2H,3H-pyrido[2,3-b][1,4]oxazine-1-carboxylate]
IC50 [1]: 1 to 10 nM
EC50 [2]: 100 to 1000 nM
IC50 [3]: 1 to 10 nM

O=C1CCCN1c1ccc(-c2cnc(Nc3cnc4c(c3)N3C(=O)CC[C@H]3CO4)nc2C(F)(F)F)cc1 [Compound 14, (6S)-12-({5-[4-(2-oxopyrrolidin-1-yl)phenyl]-4-(trifluoromethyl)pyrimidin-2-yl}amino)-8-oxa-2,10-diazatricyclo[7.4.0.0^2,6]trideca-1(9),10,12-trien-3-one]
IC50 [1]: 1 to 10 nM
EC50 [2]: > 1000 nM
IC50 [3]: 1 to 10 nM

COc1nc(Nc2cnc3c(c2)N(C(=O)OCCN(C)C)CCO3)ncc1-c1ccc(C(=O)N(C)C)cc1 [Compound 15, 2-(dimethylamino)ethyl 7-({5-[4-(dimethylcarbamoyl)phenyl]-4-methoxypyrimidin-2-yl}amino)-1H,2H,3H-pyrido[2,3-b][1,4]oxazine-1-carboxylate]
IC50 [1]: 1 to 10 nM
EC50 [2]: 100 to 1000 nM
IC50 [3]: 1 to 10 nM

COc1nc(Nc2cncc(N3CCC(N(C)C)CC3)c2)ncc1-c1ccc(N2CCCC2=O)cc1 [Compound 16, 1-{4-[2-({5-[4-(dimethylamino)piperidin-1-yl]pyridin-3-yl}amino)-4-methoxypyrimidin-5-yl]phenyl}pyrrolidin-2-one]
IC50 [1]: 10 to 100 nM
EC50 [2]: 10 to 100 nM
IC50 [3]: 10 to 100 nM

CN(C)C(=O)c1ccc(-c2cnc(Nc3cnc4c(c3)OCCO4)nc2N(C)[C@H]2C[C@@H](O)C2)cc1 [Compound 18, 4-[2-({2H,3H-[1,4]dioxino[2,3-b]pyridin-7-yl}amino)-4-{methyl[(1s,3s)-3-hydroxycyclobutyl]amino}pyrimidin-5-yl]-N,N-dimethylbenzamide]
IC50 [1]: 10 to 100 nM
EC50 [2]: > 1000 nM
IC50 [3]: 100 to 1000 nM

COc1nc(Nc2cnc3c(c2)N(C(=O)CN(C)C)CCO3)ncc1-c1ccc(N2CCCC2=O)cc1 [Compound 19, 1-{4-[2-({1-[2-(dimethylamino)acetyl]-1H,2H,3H-pyrido[2,3-b][1,4]oxazin-7-yl}amino)-4-methoxypyrimidin-5-yl]phenyl}pyrrolidin-2-one]
IC50 [1]: 10 to 100 nM
EC50 [2]: 10 to 100 nM
IC50 [3]: 10 to 100 nM

Cc1cnnn1-c1ccc(-c2cnc(Nc3cnc4c(c3)N(C(=O)CN(C)C)CCO4)nc2)cc1 [Compound 20, 2-(dimethylamino)-1-[7-({5-[4-(5-methyl-1H-1,2,3-triazol-1-yl)phenyl]pyrimidin-2-yl}amino)-1H,2H,3H-pyrido[2,3-b][1,4]oxazin-1-yl]ethan-1-one]
IC50 [1]: 10 to 100 nM
EC50 [2]: 100 to 1000 nM
IC50 [3]: 10 to 100 nM

O=C1CCCN1c1ccc(-c2cnc(Nc3cnc4c(c3)N3C(=O)CC[C@H]3CO4)nc2CC2(O)COC2)cc1F [Compound 21, (6S)-12-({5-[3-fluoro-4-(2-oxopyrrolidin-1-yl)phenyl]-4-[(3-hydroxyoxetan-3-yl)methyl]pyrimidin-2-yl}amino)-8-oxa-2,10-diazatricyclo[7.4.0.0^2,6]trideca-1(9),10,12-trien-3-one]
IC50 [1]: 10 to 100 nM
EC50 [2]: > 1000 nM
IC50 [3]: 10 to 100 nM

CCN(CC)CCN1CCOc2ncc(Nc3ncc(-c4ccc(N5CCCC5=O)cc4)c(OC)n3)cc21 [Compound 26, 1-{4-[2-({1-[2-(diethylamino)ethyl]-1H,2H,3H-pyrido[2,3-b][1,4]oxazin-7-yl}amino)-4-methoxypyrimidin-5-yl]phenyl}pyrrolidin-2-one]
IC50 [1]: 100 to 1000 nM
EC50 [2]: 100 to 1000 nM
IC50 [3]: 100 to 1000 nM

COc1nc(Nc2cncc(N3CC[C@@H](N(C)C)C3)c2)ncc1-c1ccc(-c2nnccc2C)cc1 [Compound 34, N-{5-[(3R)-3-(dimethylamino)pyrrolidin-1-yl]pyridin-3-yl}-4-methoxy-5-[4-(4-methylpyridazin-3-yl)phenyl]pyrimidin-2-amine]
IC50 [1]: 10 to 100 nM
EC50 [2]: 10 to 100 nM
IC50 [3]: 10 to 100 nM

COc1nc(Nc2cncc(N3CC[C@@H](N(C)C)C3)c2)ncc1-c1ccc(N2CCCC2=O)cc1 [Compound 35, 1-{4-[2-({5-[(3R)-3-(dimethylamino)pyrrolidin-1-yl]pyridin-3-yl}amino)-4-methoxypyrimidin-5-yl]phenyl}pyrrolidin-2-one]
IC50 [1]: 100 to 1000 nM
EC50 [2]: 10 to 100 nM
IC50 [3]: 100 to 1000 nM
